Columns and labels:
[1] = Particulate material present in solutions after mixing; type: physicochemical
Procedure: Each of the compounds noted above is weighed to the nearest 0.1 mg in a pre-tarred 1.5-ml polypropylene vial with a screw-top lid. Absolute ethanol is added to the weighed powder to prepare a 25 mg/ml solution. Solutions are thoroughly mixed using a vortex mixer. A stainless steel spatula is used to crush any particulate material remaining after extensive mixing. Vials are left overnight at room temperature, and then remixed to form the concentrated ethanol stock solutions. The presence of undissolved material is noted throughout this procedure.

[2] = tested on: wild-type soybean line A4922; assay: Field trial of seed coating application rates, wild-type soybean
Summary of the method: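 GA compounds seed-coated at 0–100 μg/seed (GA12 also 50 μg/seed), acetone carrier, versus untreated dry seed. Sown in light and heavy soil, drip-irrigated, three replicates in randomized blocks. Emergence, unrescued dwarfs, plant height and uniformity scored; LSD at 0.05.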

[3] = tested on: transgenic line 719 soybean; assay: Field trial of seed coatings under soil compaction / different soils, GA-deficient soybean; type: in vivo, Glycine max; conditions: for Count (emergence) / Dwarfs (number of dwarfs not rescued) / Dwarfs (number not rescued): Line 719
[4] = tested on: non-transgenic soybean line A4922; assay: Field trial of seed coatings under soil compaction / different soils, wild-type soybean; type: in vivo, Glycine max; conditions: for Count (emergence) / Height (total plant height): A4922
Procedure: The second trial (data reported in Tables 22-24) tested the precursors under conditions of soil compaction.
As noted above, the second trial tested the noted precursors under conditions of soil compaction. These experiments are performed in the same manner as in the first trial, except that the soil is compacted with an all-terrain vehicle.
“Height” equals total plant height in cm.

[5] = tested on: AX5/antisense CPScc soybean line 234 (R3); assay: Hilum seed treatment of epicotyl-intensive GA-deficient soybean, height (FIG. 43); type: in vivo, Glycine max; conditions: 10 DAP
[6] = Heavy soil - loose, target rate 2.0 μg/seed, Table 22
[7] = Heavy soil - loose, target rate 8.0 μg/seed, Table 22
[8] = Light soil - Compacted, target rate 2.0 μg/seed, Table 22
[9] = Light soil - Compacted, target rate 8.0 μg/seed, Table 22
[10] = Light soil - Loose, target rate 2.0 μg/seed, Table 24
[11] = Light soil - Loose, target rate 8.0 μg/seed, Table 24
[12] = Light soil - Loose, target rate 16.0 μg/seed, Table 24
[13] = Light soil - compacted, target rate 2.0 μg/seed, Table 24
[14] = Light soil - compacted, target rate 8.0 μg/seed, Table 24
[15] = Light soil - compacted, target rate 16.0 μg/seed, Table 24

For `C=C1C[C@]23C[C@H]1CC[C@H]2[C@@]12CCC[C@@](C)(C(=O)O1)[C@H]2[C@@H]3C(=O)O` [GA9], the “Particulate material present, 100X Diln w/water” value ([1]; 0.25 mg/ml compound in water) was “YES”, the “solubility in water during imbibition” value ([1]; 0.25 mg/ml treatment solutions) was “less soluble in water during imbibition” and the “A4922 Height, cm, Heavy soil” value ([2]; 0.1 μg compound per seed) was 5.7 efg cm. For the same molecule, the “A4922 Height, cm, Light soil” value ([2]; 0.1 μg compound per seed) was 5.7 f-i cm, the “No. A4922 Emerged, Heavy soil” value ([2]; 0.1 μg compound per seed) was 41.0 a-d and the “No. A4922 Emerged, Light soil” value ([2]; 0.1 μg compound per seed) was 48.3 b-e. For the same molecule, the “A4922 Height, cm, Heavy soil” value ([2]; 1 μg compound per seed) was 6.3 efg cm, the “A4922 Height, cm, Light soil” value ([2]; 1 μg compound per seed) was 6.3 fgh cm and the “No. A4922 Emerged, Heavy soil” value ([2]; 1 μg compound per seed) was 43.0 a-d. For the same molecule, the “No. A4922 Emerged, Light soil” value ([2]; 1 μg compound per seed) was 46.7 c-g, the “A4922 Height, cm, Heavy soil” value ([2]; 10 μg compound per seed) was 6.7 efg cm and the “A4922 Height, cm, Light soil” value ([2]; 10 μg compound per seed) was 7.3 fg·cm. For the same molecule, the “No. A4922 Emerged, Heavy soil” value ([2]; 10 μg compound per seed) was 26.3 g·days, the “No. A4922 Emerged, Light soil” value ([2]; 10 μg compound per seed) was 46.0 c-h and the “A4922 Height, cm, Heavy soil” value ([2]; 100 μg compound per seed) was 10.3 cm·days. For the same molecule, the “No. A4922 Emerged, Heavy soil” value ([2]; 100 μg compound per seed) was 28.3 c-g, the “No. A4922 Emerged, Light soil” value ([2]; 100 μg compound per seed) was 40.0 f-i and the “% Emergence, Heavy Soil-Loose” value ([3]; 3.1 μg/seed) was 103%. The “% Emergence, Light Soil-Compact” value ([3]; 3.1 μg/seed) was 103%, the “% Rescue, Heavy Soil-Loose” value ([3]; 3.1 μg/seed) was 80% and the “% Rescue, Light Soil-Compact” value ([3]; 3.1 μg/seed) was 91%. The “% Emergence, Heavy Soil-Loose” value ([3]; 4.9 μg/seed) was 91%, the “% Emergence, Light Soil-Compact” value ([3]; 4.9 μg/seed) was 73% and the “% Rescue, Heavy Soil-Loose” value ([3]; 4.9 μg/seed) was 93%. For the same molecule, the “% Rescue, Light Soil-Compact” value ([3]; 4.9 μg/seed) was 100%, the “Count (emergence)” value [3, 6] was 42 a and the “Dwarfs (number of dwarfs not rescued)” value [3, 6] was 2.0 cde. For the same molecule, the “Count (emergence)” value [3, 7] was 35 abc, the “Dwarfs (number of dwarfs not rescued)” value [3, 7] was 0.7 cde and the “Count (emergence)” value [3, 8] was 38 abc. For the same molecule, the “Dwarfs (number of dwarfs not rescued)” value [3, 8] was 0.7 cd, the “Count (emergence)” value [3, 9] was 27 b-f and the “Dwarfs (number of dwarfs not rescued)” value [3, 9] was 0 days. For the same molecule, the “Count (emergence)” value [3, 10] was 48.0 a, the “Dwarfs (number not rescued)” value [3, 10] was 2.3 e and the “Count (emergence)” value [3, 11] was 49.0 a. The “Dwarfs (number not rescued)” value [3, 11] was 0 e, the “Count (emergence)” value [3, 12] was 45.0 ab and the “Dwarfs (number not rescued)” value [3, 12] was 0 e. For the same molecule, the “Count (emergence)” value [3, 13] was 38.3 abc, the “Dwarfs (number not rescued)” value [3, 13] was 0.7 cd and the “Count (emergence)” value [3, 14] was 27.3 b-f. The Dwarfs (number not rescued) [3, 14] was 0, the “Count (emergence)” value [3, 15] was 29.7 a-f and the Dwarfs (number not rescued) [3, 15] was 0. For the same molecule, the “rank of potential for rescuing GA-deficient dwarf soybeans without decreasing emergence” value ([3]; based on the last two field trials) was “GA9>GA5>GA3-3-acetate>GA3>GA12”, the “best to least selectivity order” value ([3]; emergence under soil compaction, margin of selectivity, rescue without overelongation, Table 22) was “GA9>GA5>GA3-3-acetate>GA3” and the “Count (emergence)” value [4, 6] was 33 ab. For the same molecule, the “Height (total plant height)” value [4, 6] was 5.3 g·cm·days, the “Count (emergence)” value [4, 7] was 29 a-d and the “Height (total plant height)” value [4, 7] was 6.3 cde cm. For the same molecule, the “Count (emergence)” value [4, 8] was 38 abc, the “Height (total plant height)” value [4, 8] was 5.7 def cm and the “Count (emergence)” value [4, 9] was 22 de. The “Height (total plant height)” value [4, 9] was 6.0 de cm, the “Count (emergence)” value [4, 10] was 41.3 abc and the “Height (total plant height)” value [4, 10] was 5.0 gh cm. For the same molecule, the “Count (emergence)” value [4, 11] was 39.3 bc, the “Height (total plant height)” value [4, 11] was 7.0 ef cm and the “Count (emergence)” value [4, 12] was 39.0 bc. For the same molecule, the “Height (total plant height)” value [4, 12] was 8.0 de cm, the “Count (emergence)” value [4, 13] was 38.0 abc and the “Height (total plant height)” value [4, 13] was 5.7 def cm. For the same molecule, the “Count (emergence)” value [4, 14] was 21.7 de, the “Height (total plant height)” value [4, 14] was 6.0 de cm and the “Count (emergence)” value [4, 15] was 20.0 de. The “Height (total plant height)” value [4, 15] was 8.3 c cm, the “emergence at approximately equivalent biological response (height)” value ([4]; compacted soil, FIG. 40) was 93% and the “plant height dose/response in wild-type line A4922 (FIG. 40)” value ([4]; ten days after planting, compacted soil) was “less active than GA3, GA3-3-acetate, and GA5”. The “activity relative to GA3, GA3-3-acetate and GA5” value [5] was “approximately 10 times less active” and the “restoration of height of line 234 soybeans” value ([5]; hypocotyl and epicotyl elongation, hypocotyl to epicotyl ratio not maintained) was “restore normal height to line 234 soybeans”.

Source: patent publication US6723897B2, “Methods for controlling gibberellin levels” (Monsanto Technology, LLC, priority 1998, dated 2004)
